Assays:
[1] = test system: Clostridium difficile (CD) strains; assay: microbe, parasite or virus in culture; format: cell-based
C. perfringens MH310 = assay: microbe, parasite or virus in culture; format: cell-based; conditions: C. perfringens MH310
Enterococcus faecalis = assay: MIC by microdilution in Mueller-Hinton broth against Enterococcus faecalis strains; format: cell-based
Enterococci faecium = assay: MIC by microdilution in Mueller-Hinton broth against Enterococci faecium strains; format: cell-based, Enterococcus faecium; conditions: Mueller-Hinton broth
[2] = test system: Staphylococcus aureus strains; assay: MIC by microdilution in Mueller-Hinton broth against Staphylococcus aureus strains; format: cell-based
Bacteroides Strains = assay: MIC by microdilution in Brucella broth against Bacteroides strains; format: cell-based, Bacteroides spp.
Fusobacterium = assay: MIC by microdilution in Brucella broth against Fusobacterium; format: cell-based, Fusobacterium spp.; conditions: Brucella broth
Bifidobacterium strains = assay: MIC by microdilution in BHI broth against Bifidobacterium strains; format: cell-based, Bifidobacterium spp.; conditions: BHI broth
Lactobacillus strains = assay: MIC against Lactobacillus strains; format: cell-based, Lactobacillus spp.; conditions: broth microdilution, BHI with 0.02% Tween 80, pH 6.0
[3] = test system: Lachnospiraceae and related bacterial strains; assay: MIC against Lachnospiraceae and related bacterial strains; format: cell-based, Lachnospiraceae spp.; conditions: broth microdilution, brucella broth

CCN=c1cc2n(-c3ccc(Cl)cc3)c3ccccc3nc-2cc1Nc1ccc(Cl)cc1 [B746]
0.5 µg/mL: MIC (C. perfringens MH310; BB) | MIC ([3]; Eubacterium sp. HM-178) | MIC ([3]; Lachnospiraceae sp. HM-150) | MIC ([3]; Lachnospiraceae sp. HM-153) | MIC ([3]; Lachnospiraceae sp. HM-154) | MIC ([3]; Lachnospiraceae sp. HM-157)
0.25 µg/mL: MIC ([1]; CD strain BAA1805 (hyper-virulent strain BI/NAP1/027), BB) | MIC90 ([1]; n = 37) | MIC (Bacteroides Strains; B. ovatus HM222) | MIC ([3]; Lachnospiraceae sp. HM-161)
1 µg/mL: MIC (C. perfringens MH310; BHI) | MIC (Bacteroides Strains; B. caccae HM728) | MIC (Bacteroides Strains; B. spp. HM18) | MIC (Bacteroides Strains; B. spp. HM20) | MIC (Bacteroides Strains; B. spp. HM22) | MIC (Bacteroides Strains; B. spp. HM27) | MIC (Bacteroides Strains; B. spp. HM58) | MIC (Bacteroides Strains; B. stercoris HM1036) | MIC (Bifidobacterium strains; Bifidobacterium sp. HM-30) | MIC ([3]; Clostridiales bacterium HM-182) | MIC ([3]; Peptostreptococcaceae sp. HM-766)
2 µg/mL: MIC (Enterococci faecium; E. faecium NR 31903) | MIC (Enterococci faecium; E. faecium NR 31909) | MIC (Enterococci faecium; E. faecium NR 31912) | MIC (Enterococci faecium; E. faecium NR 31915) | MIC (Enterococci faecium; E. faecium NR 31916) | MIC ([2]; Staphylococcus aureus strain NR 10186) | MIC (Bacteroides Strains; B. eggerthii HM210) | MIC (Bacteroides Strains; B. fragilis HM710) | MIC (Bacteroides Strains; B. spp. HM19) | MIC (Bacteroides Strains; B. spp. HM23) | MIC (Bacteroides Strains; B. spp. HM28) | MIC (Fusobacterium; F. nucleatum HM-993) | MIC (Bifidobacterium strains; Bifidobacterium adolescentis HM-633) | MIC (Bifidobacterium strains; Bifidobacterium longum HM-845) | MIC (Bifidobacterium strains; Bifidobacterium longum HM-846) | MIC (Bifidobacterium strains; Bifidobacterium longum HM-847) | MIC (Bifidobacterium strains; Bifidobacterium sp. HM-868) | MIC ([3]; Lachnospiraceae sp. HM-868)
0.062 µg/mL: MIC ([3]; Clostridiales bacterium HM-84)
≦0.031-0.5 μg/ml: MIC Range ([1]; n = 37)
0.125 µg/mL: MIC50 ([1]; n = 37) | MIC ([3]; Lachnospiraceae sp. HM-480) | MIC ([3]; Lachnospiraceae sp. HM-558)
8 fold: antibacterial activity against CD, fold greater than VAN [1]
32 µg/mL: MIC (Fusobacterium; F. nucleatum HM-996) | MIC (Bifidobacterium strains; Bifidobacterium breve HM-856) | MIC (Lactobacillus strains; Lactobacillus jhonsonii HM-643) | MIC (Lactobacillus strains; Lactobacillus reuteri HM-102)
8 µg/mL: MIC (Enterococcus faecalis; E. faecalis NR 31886) | MIC (Enterococcus faecalis; E. faecalis NR 31888) | MIC (Fusobacterium; F. nucleatum HM-994) | MIC (Fusobacterium; Fusobacterium sp. HM-556) | MIC (Fusobacterium; Fusobacterium sp. HM-871) | MIC (Fusobacterium; Fusobacterium sp. HM-875) | MIC (Lactobacillus strains; Lactobacillus crispatus HM-637)
4 µg/mL: MIC (Enterococcus faecalis; E. faecalis NR 31884) | MIC (Enterococcus faecalis; E. faecalis NR 31885) | MIC (Enterococcus faecalis; E. faecalis NR 31887) | MIC ([2]; Staphylococcus aureus strain NR 10129) | MIC ([2]; Staphylococcus aureus strain NR 10187) | MIC ([2]; Staphylococcus aureus strain NR 10188) | MIC ([2]; Staphylococcus aureus strain NR 10189) | MIC ([2]; Staphylococcus aureus strain NR 10191) | MIC ([2]; Staphylococcus aureus strain NR 10192) | MIC ([2]; Staphylococcus aureus strain NR 10193) | MIC ([2]; Staphylococcus aureus strain NR 10194) | MIC (Bacteroides Strains; B. fragilis HM709) | MIC (Bacteroides Strains; B. fragilis HM714) | MIC (Bifidobacterium strains; Bifidobacterium breve HM-411) | MIC (Bifidobacterium strains; Bifidobacterium breve HM-412) | MIC (Lactobacillus strains; Lactobacillus iners HM-126) | MIC (Lactobacillus strains; Lactobacillus sp. HM-228) | MIC (Lactobacillus strains; Lactobacillus vaginalis HM-405)
16 µg/mL: MIC ([2]; Staphylococcus aureus strain NR 10198) | MIC (Fusobacterium; F. nucleatum HM-75) | MIC (Fusobacterium; F. nucleatum HM-992) | MIC (Fusobacterium; F. nucleatum HM-995) | MIC (Fusobacterium; F. nucleatum HM-997) | MIC (Fusobacterium; Fusobacterium sp. HM-874) | MIC (Lactobacillus strains; Lactobacillus gasseri HM-104) | MIC (Lactobacillus strains; Lactobacillus sp. HM-478)
≦0.031 μg/ml: MIC ([3]; Lachnospiraceae sp. HM-7) | MIC ([3]; Lachnospiraceae sp. HM-768)
16 fold: antibacterial activity against CD, fold greater than MET [1]
>32 µg/mL: MIC (Fusobacterium; F. nucleatum HM-260) | MIC (Fusobacterium; Fusobacterium sp. HM 42) | MIC (Fusobacterium; Fusobacterium sp. HM 57) | MIC (Fusobacterium; Fusobacterium sp. HM-758) | MIC (Bifidobacterium strains; Bifidobacterium breve HM-1120) | MIC (Lactobacillus strains; Lactobacillus jensenii HM-105) | MIC (Lactobacillus strains; Lactobacillus rhamnosus HM-106)

Reference: patent publication US9849130B2 (KamTek, Inc., priority 2014, dated 2017)
